Assay results reported in patent publication US11939314B2, “Quinolin-2-one derivatives” (MERCK PATENT GMBH, priority 2016, dated 2024).

Assays:
c-Kit(V654A) = molecular target: T1, c-Kit(V654A) (Homo sapiens, UniProt P10721, V654A); test: c-Kit(V654A) assay; format: biochemical; details: recombinant human c-Kit aa 544-end, 200 μM ATP, 1.4E-06 means 1.4×10^−6, read-out: Inhibition (IC50) of c-KIT (V654A)
T1 construct: amino acids 544-end containing the V654A mutation; GST (N)
Summary of the method: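 Radiometric filter-binding read-out: substrate 33P incorporation counted by scintillation after P30 filtermat washes in 75 mM phosphoric acid and methanol. Enzyme: N-GST recombinant human c-Kit aa 544-end carrying V654A.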

PDGFRalpha(V561D) = molecular target: T2, PDGFRalpha(V561D) (Homo sapiens, UniProt P16234, V561D); test: PDGFRalpha(V561D) assay; format: biochemical; details: recombinant human PDGFRalpha aa 550-end, 200 μM ATP, 1.4E-06 means 1.4×10^−6, read-out: Inhibition (IC50) of PDGFRα (V561D)
T2 construct: recombinant human PDGFRalpha, amino acids 550end containing the V561 D mutation; 6His (N)
Protocol: PDGFRalpha(V561D) (N-terminal 6His-tagged, recombinant human PDGFRalpha, amino acids 550end containing the V561 D mutation) is incubated with 8 mM MOPS pH 7.0, 0.2 mM EDTA, 250 μM GGMEDIYEFMGGKKK, 10 mM MgAcetate and [gamma-33P-ATP] (specific activity approx. 500 cpm/pmol, concentration 200 μM). The reaction is initiated by the addition of the MgATP mix. After incubation for 40 minutes at room temperature, the reaction is stopped by the addition of 3% phosphoric acid solution. 10 μL of the reaction is then spotted onto a P30 filtermat and washed three times for 5 minutes in 75 mM phosphoric acid and once in methanol prior to drying and scintillation counting.

T1 sequence (P10721 544-976 V654A): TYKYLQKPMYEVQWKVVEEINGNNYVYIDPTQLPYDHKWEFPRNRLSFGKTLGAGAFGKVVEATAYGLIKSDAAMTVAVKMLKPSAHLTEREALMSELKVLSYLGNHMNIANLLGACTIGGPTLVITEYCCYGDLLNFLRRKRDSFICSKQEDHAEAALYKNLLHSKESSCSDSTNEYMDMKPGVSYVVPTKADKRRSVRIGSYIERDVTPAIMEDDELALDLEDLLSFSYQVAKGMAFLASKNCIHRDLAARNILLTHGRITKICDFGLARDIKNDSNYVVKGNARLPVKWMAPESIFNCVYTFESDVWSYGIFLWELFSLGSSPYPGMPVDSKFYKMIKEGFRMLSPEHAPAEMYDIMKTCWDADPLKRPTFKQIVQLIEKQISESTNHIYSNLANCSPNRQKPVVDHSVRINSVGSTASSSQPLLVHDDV
T2 sequence (P16234 550-1089 V561D): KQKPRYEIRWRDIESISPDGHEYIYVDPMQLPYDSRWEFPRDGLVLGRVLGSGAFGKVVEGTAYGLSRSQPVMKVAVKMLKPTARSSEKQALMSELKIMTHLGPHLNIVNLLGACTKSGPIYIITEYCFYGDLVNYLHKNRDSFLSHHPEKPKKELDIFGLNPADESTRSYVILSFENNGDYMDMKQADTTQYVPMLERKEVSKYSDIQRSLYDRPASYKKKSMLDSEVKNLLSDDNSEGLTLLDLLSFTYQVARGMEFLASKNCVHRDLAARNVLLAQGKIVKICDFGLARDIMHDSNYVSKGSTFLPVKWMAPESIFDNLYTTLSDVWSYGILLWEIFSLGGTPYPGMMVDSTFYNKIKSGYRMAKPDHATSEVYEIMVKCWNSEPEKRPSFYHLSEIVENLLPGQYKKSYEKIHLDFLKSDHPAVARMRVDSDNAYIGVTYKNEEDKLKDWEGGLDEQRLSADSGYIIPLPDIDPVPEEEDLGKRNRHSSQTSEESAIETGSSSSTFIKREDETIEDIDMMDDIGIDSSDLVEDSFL

SMILES | IC50 (c-Kit(V654A)) [nM] | IC50 (PDGFRalpha(V561D)) [nM]
Cc1ccc2cc(-c3cn(-c4ccc(C(=O)N5CCN(C)CC5)cc4)nn3)c(=O)[nH]c2n1 [A65, 7-methyl-3-{1-[4-(4-methyl-piperazine-1-carbonyl)-phenyl]-1H-[1,2,3]triazol-4-yl}-1H-[1,8]naphthyridin-2-one] | 1200 | 150
CN1CCN(c2ncc(-n3cc(-c4cc5ccccc5[nH]c4=O)nn3)cn2)CC1 [A66, 3-{1-[2-(4-methyl-piperazin-1-yl)-pyrimidin-5-yl]-1H-[1,2,3]triazol-4-yl}-1H-quinolin-2-one] | 640 | 190
CN1CCN(C(=O)c2ccc(-n3cc(-c4cc5cc(F)cnc5[nH]c4=O)nn3)cc2)CC1 [A67, 6-fluoro-3-{1-[4-(4-methyl-piperazine-1-carbonyl)-phenyl]-1H-[1,2,3]triazol-4-yl}-1H-[1,8]naphthyridin-2-one] | 24 | 4
CN1CCN(c2ccc(-n3cc(-c4cc5ccccc5[nH]c4=O)nn3)cc2)C(=O)C1 [A68, 3-{1-[4-(4-methyl-2-oxo-piperazin-1-yl)-phenyl]-1H-[1,2,3]triazol-4-yl}-1H-quinolin-2-one] | 28 | 7
O=c1[nH]c2ccccc2cc1-c1cnn(-c2ccccc2)c1 [A75, 3-(1-phenyl-1H-pyrazol-4-yl)-1H-quinolin-2-one] | 48 | 18
O=C(c1cccc(-n2cc(-c3cc4ccccc4[nH]c3=O)nn2)c1)N1CCOCC1 [A76, 3-{1-[3-(morpholine-4-carbonyl)-phenyl]-1H-[1,2,3]triazol-4-yl}-1H-quinolin-2-one] | 49 | 30
O=C(O)c1ccc(-n2cc(-c3cc4cccnc4[nH]c3=O)nn2)cc1 [A77, 4-[4-(2-Oxo-1,2-dihydro-[1,8]naphthyridin-3-yl)-[1,2,3]triazol-1-yl]-benzoic acid] | 470 | 110
CN1CCN(C(=O)c2cccc(-n3cc(-c4cc5ccccc5[nH]c4=O)nn3)c2)CC1 [A79, 3-{1-[3-(4-methyl-piperazine-1-carbonyl)-phenyl]-1H-[1,2,3]triazol-4-yl}-1H-quinolin-2-one] | 33 | 31
C=C(C)c1ccc(-n2cc(-c3cc4ccccc4[nH]c3=O)nn2)cc1 [A80, 3-[1-(4-isopropenyl-phenyl)-1H-[1,2,3]triazol-4-yl]-1H-quinolin-2-one] | 120 | 44
Cc1ccc2cc(-c3cn(-c4ccc(C(=O)N5CCOCC5)cc4)nn3)c(=O)[nH]c2c1 [A84, 7-methyl-3-{1-[4-(morpholine-4-carbonyl)-phenyl]-1H-[1,2,3]triazol-4-yl}-1H-quinolin-2-one] | 48 | 5
O=C(c1ccc(-n2cc(-c3cc4ncccc4[nH]c3=O)nn2)cc1)N1CCOCC1 [A85, 3-{1-[4-(morpholine-4-carbonyl)-phenyl]-1H-[1,2,3]triazol-4-yl}-1H-[1,5]naphthyridin-2-one] | 1300 | 1700
COCCCN1CCN(C(=O)c2ccc(-n3cc(-c4cc5c(F)cccc5[nH]c4=O)nn3)cc2)CC1 [A87, 5-fluoro-3-(1-{4-[4-(3-methoxy-propyl)-piperazine-1-carbonyl]-phenyl}-1H-[1,2,3]triazol-4-yl)-1H-quinolin-2-one] | 25 | 12
COCCCN1CCN(C(=O)c2ccc(-n3cc(-c4cc5cc(F)cnc5[nH]c4=O)nn3)cc2)CC1 [A88, 6-fluoro-3-(1-{4-[4-(3-methoxy-propyl)-piperazine-1-carbonyl]-phenyl}-1H-[1,2,3]triazol-4-yl)-1H-[1,8]naphthyridin-2-one] | 90 | 6
COCCCN1CCN(C(=O)c2ccc(-n3cc(-c4cc5cccnc5[nH]c4=O)nn3)cc2)CC1 [A89, 3-(1-{4-[4-(3-methoxy-propyl)-piperazine-1-carbonyl]-phenyl}-1H-[1,2,3]triazol-4-yl)-1H-[1,8]naphthyridin-2-one] | 36 | 8
O=C(c1ccc(-n2cc(-c3cc4c(F)cc(F)cc4[nH]c3=O)nn2)cc1)N1CCOCC1 [A90, 5,7-difluoro-3-{1-[4-(morpholine-4-carbonyl)-phenyl]-1H-[1,2,3]triazol-4-yl}-1H-quinolin-2-one] | 20 | 29
CN1CCN(C(=O)c2ccc(-n3cc(-c4cc5cc(F)ccc5[nH]c4=O)nn3)cc2)CC1=O [A92, 6-fluoro-3-{1-[4-(4-methyl-3-oxo-piperazine-1-carbonyl)-phenyl]-1H-[1,2,3]triazol-4-yl}-1H-quinolin-2-one] | 21 | 5.9
COc1ccc2cc(-c3cn(-c4ccc(C(=O)N5CCOCC5)cc4)nn3)c(=O)[nH]c2c1 [A93, 7-methoxy-3-{1-[4-(morpholine-4-carbonyl)-phenyl]-1H-[1,2,3]triazol-4-yl}-1H-quinolin-2-one] | 320 | 310
O=C(c1ccc(-n2cc(-c3cc4cncnc4[nH]c3=O)nn2)cc1)N1CCOCC1 [A94, 6-{1-[4-(Morpholine-4-carbonyl)-phenyl]-1H-[1,2,3]triazol-4-yl}-8H-pyrido[2,3-d]pyrimidin-7-one] | 3600 | 2300
O=c1[nH]c2ccc(F)cc2cc1-c1cn(-c2cccc(OCCN3CCOCC3)c2)nn1 [A94a, 6-fluoro-3-{1-[3-(2-morpholin-4-yl-ethoxy)-phenyl]-1H-[1,2,3]triazol-4-yl}-1H-quinolin-2-one] | 60 | 54

The next compounds have a lower IC50 (c-Kit(V654A)) than those just listed; values first:

IC50 (c-Kit(V654A)) [nM] | IC50 (PDGFRalpha(V561D)) [nM] | SMILES
14 | 10 | CN1CCCN(c2ccc(-n3cc(-c4cc5ccccc5[nH]c4=O)nn3)cc2)CC1 [A69, 3-{1-[4-(4-methyl-[1,4]diazepan-1-yl)-phenyl]-1H-[1,2,3]triazol-4-yl}-1H-quinolin-2-one]
14 | 5 | CN1CCN(c2ccc(-n3cc(-c4cc5cc(F)ccc5[nH]c4=O)nn3)cc2)CC1 [A70, 6-fluoro-3-{1-[4-(4-methyl-piperazin-1-yl)-phenyl]-1H-[1,2,3]triazol-4-yl}-1H-quinolin-2-one]
8 | 4 | CN1CCN(c2ccc(-n3cc(-c4cc5cc(F)ccc5[nH]c4=O)nn3)cc2)C(=O)C1 [A71, 6-fluoro-3-{1-[4-(4-methyl-2-oxo-piperazin-1-yl)-phenyl]-1H-[1,2,3]triazol-4-yl}-1H-quinolin-2-one]
11 | 4 | CN1CCN(CCOc2ccc(-n3cc(-c4cc5ccccc5[nH]c4=O)nn3)cc2)CC1 [A72, 3-(1-{4-[2-(4-methyl-piperazin-1-yl)-ethoxy]-phenyl}-1H-[1,2,3]triazol-4-yl)-1H-quinolin-2-one]
8 | 6 | CN1CCN(C(=O)c2ccc(-n3cc(-c4cc5ccccc5[nH]c4=O)cn3)cc2)CC1 [A74, 3-{1-[4-(4-methyl-piperazine-1-carbonyl)-phenyl]-1H-pyrazol-4-yl}-1H-quinolin-2-one]
17 | 31 | O=C(c1cccc(-n2cc(-c3cc4ccccc4[nH]c3=O)nn2)c1)N1CCNCC1 [A78, 3-{1-[3-(piperazine-1-carbonyl)-phenyl]-1H-[1,2,3]triazol-4-yl}-1H-quinolin-2-one]
17 | 6 | CC(C)(c1ccc(-n2cc(-c3cc4ccccc4[nH]c3=O)nn2)cc1)S(C)(=O)=O [A81, 3-{1-[4-(1-methanesulfonyl-1-methyl-ethyl)-phenyl]-1H-[1,2,3]triazol-4-yl}-1H-quinolin-2-one]
14 | 3 | O=C(c1ccc(-n2cc(-c3cc4ccc(Cl)cc4[nH]c3=O)nn2)cc1)N1CCOCC1 [A82, 7-chloro-3-{1-[4-(morpholine-4-carbonyl)-phenyl]-1H-[1,2,3]triazol-4-yl}-1H-quinolin-2-one]
10 | 3 | O=C(c1ccc(-n2cc(-c3cc4ccc(F)cc4[nH]c3=O)nn2)cc1)N1CCOCC1 [A83, 7-fluoro-3-{1-[4-(morpholine-4-carbonyl)-phenyl]-1H-[1,2,3]triazol-4-yl}-1H-quinolin-2-one]
11 | 2 | COCCCN1CCN(C(=O)c2ccc(-n3cc(-c4cc5cc(F)ccc5[nH]c4=O)nn3)cc2)CC1 [A86, 6-fluoro-3-(1-{4-[4-(3-methoxy-propyl)-piperazine-1-carbonyl]-phenyl}-1H-[1,2,3]triazol-4-yl)-1H-quinolin-2-one]
19 | 8.2 | O=C(c1ccc(-n2cc(-c3cc4ccc(Br)cc4[nH]c3=O)nn2)cc1)N1CCOCC1 [A91, 7-bromo-3-{1-[4-(morpholine-4-carbonyl)-phenyl]-1H-[1,2,3]triazol-4-yl}-1H-quinolin-2-one]
9 | 370 | CN1CCN(C(=O)c2ccc(-n3cc(-c4cc5c(F)cc(F)cc5[nH]c4=O)nn3)cc2)CC1=O [A95, 5,7-difluoro-3-{1-[4-(4-methyl-3-oxo-piperazine-1-carbonyl)-phenyl]-1H-[1,2,3]triazol-4-yl}-1H-quinolin-2-one]
5.2 | 0.33 | CN1CCN(C(=O)c2ccc(-n3cc(-c4cc5cc(Cl)ccc5[nH]c4=O)nn3)cc2)CC1=O [A96, 6-chloro-3-{1-[4-(4-methyl-3-oxo-piperazine-1-carbonyl)-phenyl]-1H-[1,2,3]triazol-4-yl}-1H-quinolin-2-one]
